# Activity calls are given as the source filed them. The rule behind the calls is not given here.
# What was measured:
# [1] = test system: Human immunodeficiency virus; assay: Substrate activity at HIV reverse transcriptase assessed as n+1 band formation incubated for 30 mins in presence of primer/template mixture and dNTPs by primer extension assay based fluorescence analysis
# [2] = test system: Human immunodeficiency virus 1; assay: Potency index, ratio of Tenofovir EC50 to test compound EC50 for antiviral activity against HIV-1 HE infected in wild type human CEM/0 cells; type: functional
# [3] = Half life of the compound in citrate-containing human plasma by HPLC analysis; type: ADME, cell-free
# [4] = Drug metabolism in human CEM/0 cell extracts assessed as (R)-9-(2-(phosphonomethoxy)propyl)adenine formation by RP18-HPLC analysis; type: ADME; conditions: ccrf-cem
# [5] = test system: Human immunodeficiency virus 1; assay: Antiviral activity against HIV-1 HE infected in wild type human CEM/0 cells assessed as inhibition of virus-induced giant cell formation incubated for 4 to 5 days by light microscopy; type: functional, organism-based; conditions: Human immunodeficiency virus 1, HE, CCRF-CEM
# [6] = Selectivity index, ratio of CC50 for cytotoxicity against human CEM cells to EC50 for antiviral activity against HIV-2 ROD infected in thymidine kinase deficient human CEM cells; type: toxicity, cell-based; conditions: read-out: Ratio CC50/EC50
# [7] = Drug metabolism in phosphate buffer saline assessed as (R)-9-(2-(phosphonomethoxy)propyl)adenine formation in presence of pig liver esterase at pH 7.3 by RP18-HPLC analysis; type: ADME, Sus scrofa; conditions: isolated protein
# [8] = target: DNA polymerase beta (Homo sapiens) (UniProt P06746); assay: Substrate activity at human DNA polymerase beta assessed as n+1 band formation incubated for 120 mins in presence of primer/template mixture and dNTPs by primer extension assay based fluorescence analysis
# [9] = target: T1, DNA polymerase alpha catalytic subunit (Homo sapiens) (UniProt P09884); assay: Substrate activity at human DNA polymerase alpha assessed as n+1 band formation incubated for 60 mins in presence of primer/template mixture and dNTPs by primer extension assay based fluorescence analysis
# T1 sequence (whole entry): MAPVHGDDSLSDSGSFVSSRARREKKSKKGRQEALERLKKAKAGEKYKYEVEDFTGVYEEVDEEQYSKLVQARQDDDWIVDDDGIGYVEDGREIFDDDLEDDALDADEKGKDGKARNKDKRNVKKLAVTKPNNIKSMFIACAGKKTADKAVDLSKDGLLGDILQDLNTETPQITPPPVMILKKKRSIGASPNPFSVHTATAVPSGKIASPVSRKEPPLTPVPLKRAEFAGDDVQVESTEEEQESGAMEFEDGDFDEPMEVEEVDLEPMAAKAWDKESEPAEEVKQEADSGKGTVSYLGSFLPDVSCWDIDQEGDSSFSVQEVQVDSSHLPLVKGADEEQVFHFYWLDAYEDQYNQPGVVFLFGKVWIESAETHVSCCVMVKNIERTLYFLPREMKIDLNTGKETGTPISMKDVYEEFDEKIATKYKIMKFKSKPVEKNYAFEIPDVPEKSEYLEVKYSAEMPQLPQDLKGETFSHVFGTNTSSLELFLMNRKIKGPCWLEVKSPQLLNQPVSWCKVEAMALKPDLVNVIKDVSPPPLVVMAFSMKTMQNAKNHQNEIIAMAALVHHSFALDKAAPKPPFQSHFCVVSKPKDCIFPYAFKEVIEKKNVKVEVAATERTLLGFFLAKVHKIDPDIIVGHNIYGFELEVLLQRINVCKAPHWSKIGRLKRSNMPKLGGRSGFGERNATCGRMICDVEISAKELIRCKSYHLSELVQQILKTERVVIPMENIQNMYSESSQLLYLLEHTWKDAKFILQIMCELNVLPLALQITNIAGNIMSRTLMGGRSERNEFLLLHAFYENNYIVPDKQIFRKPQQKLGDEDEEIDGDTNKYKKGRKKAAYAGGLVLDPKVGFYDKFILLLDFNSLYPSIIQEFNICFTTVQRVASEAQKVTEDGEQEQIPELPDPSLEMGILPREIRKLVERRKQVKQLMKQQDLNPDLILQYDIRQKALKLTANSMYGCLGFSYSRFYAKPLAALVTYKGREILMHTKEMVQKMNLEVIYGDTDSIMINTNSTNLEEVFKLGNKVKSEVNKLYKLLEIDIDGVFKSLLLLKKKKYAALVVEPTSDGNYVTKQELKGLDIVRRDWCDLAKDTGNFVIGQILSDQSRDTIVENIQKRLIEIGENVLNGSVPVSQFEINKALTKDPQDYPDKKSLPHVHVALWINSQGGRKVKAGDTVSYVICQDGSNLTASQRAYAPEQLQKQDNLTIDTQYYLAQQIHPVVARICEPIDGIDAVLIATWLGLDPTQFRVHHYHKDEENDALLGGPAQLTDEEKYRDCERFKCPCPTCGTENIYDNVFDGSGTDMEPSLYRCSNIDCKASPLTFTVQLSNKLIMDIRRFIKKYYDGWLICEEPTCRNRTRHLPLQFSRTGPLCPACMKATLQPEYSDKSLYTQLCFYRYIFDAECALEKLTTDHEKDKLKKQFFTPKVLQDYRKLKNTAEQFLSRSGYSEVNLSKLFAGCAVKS
# [10] = test system: Human immunodeficiency virus 2; assay: Potency index, ratio of Tenofovir EC50 to test compound EC50 for antiviral activity against HIV-2 ROD infected in thymidine kinase deficient human CEM cells; type: functional
# [11] = test system: Human immunodeficiency virus 2; assay: Potency index, ratio of Tenofovir EC50 to test compound EC50 for antiviral activity against HIV-2 ROD infected in wild type human CEM/0 cells; type: functional
# [12] = Lipophilicity of the compound assessed as retention time by RP-HPLC analysis; type: physicochemical
# [13] = Drug metabolism in phosphate buffer saline assessed as Tenofovir diphosphate formation in presence of pig liver esterase at pH 7.3 by RP18-HPLC analysis; type: ADME, Sus scrofa; conditions: isolated protein
# [14] = Drug hydrolysis in phosphate buffer saline incubated for 100 hrs in presence of pig liver esterase at pH 7.3 by RP18-HPLC analysis; type: ADME, Sus scrofa; conditions: read-out: Drug degradation
# [15] = Drug metabolism in human CEM/0 cell extracts assessed as Tenofovir monophosphate formation by RP18-HPLC analysis; type: ADME; conditions: ccrf-cem
# [16] = Drug metabolism in phosphate buffer saline assessed as gamma-monoalkylated metabolite formation in presence of pig liver esterase at pH 7.3 by RP18-HPLC analysis; type: ADME, Sus scrofa; conditions: isolated protein
# [17] = Drug metabolism in human CEM/0 cell extracts assessed as Tenofovir diphosphate formation by RP18-HPLC analysis; type: ADME; conditions: ccrf-cem
# [18] = Drug hydrolysis in phosphate buffer saline incubated for 600 hrs at pH 7.3 by RP18-HPLC analysis; type: physicochemical; conditions: read-out: Drug degradation
# [19] = Drug hydrolysis in phosphate buffer saline incubated for 500 hrs at pH 7.3 by RP18-HPLC analysis; type: physicochemical; conditions: read-out: Drug degradation
# [20] = Drug metabolism in human CEM/0 cell extracts assessed as gamma-monoalkylated metabolite formation by RP18-HPLC analysis; type: ADME; conditions: ccrf-cem
Activity [1],half-life [3] [h],Drug metabolism [4],EC50 [5] [nM],Drug metabolism [7],Activity [8],Activity [9],Retention_time [12] [min],Drug metabolism [13],metabolised at 100 h [14] [%],Drug metabolism [15],Drug metabolism [16],Drug metabolism [17],degraded at 600 h [18] [%],degraded at 500 h [19] [%],Drug metabolism [20],Compound,Ratio EC50 [2],selectivity ratio [6],Ratio EC50 [10],Ratio EC50 [11]
inactive,> 5,Metabolite_Detected,35,Metabolite_Detected,inactive,inactive,18.1,,,,,,,,,CCCCCCCCCCCCCCCCCCP(=O)(OCCCC)OP(=O)(O)CO[C@H](C)Cn1cnc2c(N)ncnc21 (stereo partly drawn),59,14000,326,567
Active,> 8,,47,,inactive,inactive,15.5,Metabolite_Notdetected,31,Metabolite_Detected,Metabolite_Notdetected,,,,,CCCCCCCCCCCCCCCCCCOP(=O)(OCCCC)OP(=O)(O)OP(=O)(O)CO[C@H](C)Cn1cnc2c(N)ncnc21 (stereo partly drawn),,3690,,
inactive,> 8,,78,,inactive,inactive,15.2,Metabolite_Notdetected,16,Metabolite_Detected,Metabolite_Notdetected,Metabolite_Notdetected,45,40,Metabolite_Notdetected,CCCCCCCCCCCCCCCCCCP(=O)(OCCCC)OP(=O)(O)OP(=O)(O)CO[C@H](C)Cn1cnc2c(N)ncnc21 (stereo partly drawn),,1350,,

# Reference: ChEMBL document CHEMBL5518164, “Membrane-permeable tenofovir-di- and monophosphate analogues” (Eur J Med Chem, 2024)
